Assay results from article PMC5341858, “Molecular regulation of apoptotic machinery and lipid metabolism by mTORC1/mTORC2 dual inhibitors in preclinical models of HER2+/PIK3CAmut breast cancer” (Oncotarget, 2016).

Columns and labels:
[1] = molecular target: T1, ABL1 (E255K)- phosphorylated (Homo sapiens, UniProt P00519, E255K); assay: KINOMEscan binding assay; conditions: 1000 nM, percent control relative to vehicle
T1 construct: purchased DiscoveRx KINOMEscan
From the text: (§1) IC50 values were generated using Graphpad PRISM 5 software.

[2] = molecular target: T2, ABL1 (T315I)- phosphorylated (Homo sapiens, UniProt P00519, T315I); assay: KINOMEscan binding assay; conditions: 1000 nM, percent control relative to vehicle
T2 construct: purchased DiscoveRx KINOMEscan
From the text: as §1

AURKA = molecular target: T3, AURKA (Homo sapiens, UniProt O14965); assay: KINOMEscan binding assay; conditions: 1000 nM, percent control relative to vehicle
T3 construct: purchased DiscoveRx KINOMEscan
From the text: as §1

CDK2 = molecular target: T4, CDK2 (Homo sapiens, UniProt P24941); assay: KINOMEscan binding assay; conditions: 1000 nM, percent control relative to vehicle
T4 construct: purchased DiscoveRx KINOMEscan
From the text: as §1

CSNK1G2 = molecular target: T5, CSNK1G2 (Homo sapiens, UniProt P78368); assay: KINOMEscan binding assay; conditions: 1000 nM, percent control relative to vehicle
T5 construct: purchased DiscoveRx KINOMEscan
From the text: as §1

DCAMKL1 = molecular target: T6, DCAMKL1 (Homo sapiens, UniProt O15075); assay: KINOMEscan binding assay; conditions: 1000 nM, percent control relative to vehicle
T6 construct: purchased DiscoveRx KINOMEscan
From the text: as §1

FGFR2 = molecular target: T7, FGFR2 (Homo sapiens, UniProt P21802); assay: KINOMEscan binding assay; conditions: 1000 nM, percent control relative to vehicle
T7 construct: purchased DiscoveRx KINOMEscan
From the text: as §1

FGFR3 = molecular target: T8, FGFR3 (Homo sapiens, UniProt P22607); assay: KINOMEscan binding assay; conditions: 1000 nM, percent control relative to vehicle
T8 construct: purchased DiscoveRx KINOMEscan
From the text: as §1

GSK3B = molecular target: T9, GSK3B (Homo sapiens, UniProt P49841); assay: KINOMEscan binding assay; conditions: 1000 nM, percent control relative to vehicle
T9 construct: purchased DiscoveRx KINOMEscan
From the text: as §1

JNK3 = molecular target: T10, JNK3 (Homo sapiens, UniProt P53779); assay: KINOMEscan binding assay; conditions: 1000 nM, percent control relative to vehicle
T10 construct: purchased DiscoveRx KINOMEscan
From the text: as §1

LKB1 = molecular target: T11, LKB1 (Homo sapiens, UniProt Q15831); assay: KINOMEscan binding assay; conditions: 1000 nM, percent control relative to vehicle
T11 construct: purchased DiscoveRx KINOMEscan
From the text: as §1

MAPKAPK2 = molecular target: T12, MAPKAPK2 (Homo sapiens, UniProt P49137); assay: KINOMEscan binding assay; conditions: 1000 nM, percent control relative to vehicle
T12 construct: purchased DiscoveRx KINOMEscan
From the text: as §1

MEK1 = molecular target: T13, MEK1 (Homo sapiens, UniProt Q02750); assay: KINOMEscan binding assay; conditions: 1000 nM, percent control relative to vehicle
T13 construct: purchased DiscoveRx KINOMEscan
From the text: as §1

PAK2 = molecular target: T14, PAK2 (Homo sapiens, UniProt Q13177); assay: KINOMEscan binding assay; conditions: 1000 nM, percent control relative to vehicle
T14 construct: purchased DiscoveRx KINOMEscan
From the text: as §1

PAK4 = molecular target: T15, PAK4 (Homo sapiens, UniProt O96013); assay: KINOMEscan binding assay; conditions: 1000 nM, percent control relative to vehicle
T15 construct: purchased DiscoveRx KINOMEscan
From the text: as §1

PIM2 = molecular target: T16, PIM2 (Homo sapiens, UniProt Q9P1W9); assay: KINOMEscan binding assay; conditions: 1000 nM, percent control relative to vehicle
T16 construct: purchased DiscoveRx KINOMEscan
From the text: as §1

PKAC-alpha = molecular target: T17, PKAC-alpha (Homo sapiens, UniProt P17612); assay: KINOMEscan binding assay; conditions: 1000 nM, percent control relative to vehicle
T17 construct: purchased DiscoveRx KINOMEscan
From the text: as §1

SNARK = molecular target: T18, SNARK (Homo sapiens, UniProt Q9H093); assay: KINOMEscan binding assay; conditions: 1000 nM, percent control relative to vehicle
T18 construct: purchased DiscoveRx KINOMEscan
From the text: as §1

SRPK3 = molecular target: T19, SRPK3 (Homo sapiens, UniProt Q9UPE1); assay: KINOMEscan binding assay; conditions: 1000 nM, percent control relative to vehicle
T19 construct: purchased DiscoveRx KINOMEscan
From the text: as §1

TRKA = molecular target: T20, TRKA (Homo sapiens, UniProt P04629); assay: KINOMEscan binding assay; conditions: 1000 nM, percent control relative to vehicle
T20 construct: purchased DiscoveRx KINOMEscan
From the text: as §1

[3] = molecular target: T21, TYK2 (JH1domain-catalytic) (Homo sapiens, UniProt P29597); assay: KINOMEscan binding assay; conditions: 1000 nM, percent control relative to vehicle
T21 construct: TYK2 (JH1domain-catalytic); purchased DiscoveRx KINOMEscan
From the text: as §1

VEGFR2 = molecular target: T22, VEGFR2 (Homo sapiens, UniProt P35968); assay: KINOMEscan binding assay; conditions: 1000 nM, percent control relative to vehicle
T22 construct: purchased DiscoveRx KINOMEscan
From the text: as §1

[4] = test system: MDA-MB-453 and 786-O tumors; assay: In vivo antitumor efficacy, oral once daily
Protocol: (§2) Animal studies were performed under protocols approved by Institutional Animal Care and Use Committee (IACUC) of Fudan University. Balbc female nude mice bearing MDA-MB-453, HCC1806 or 786-O tumors were staged at initial tumor volume of 150-200 mm^3 and randomized into treatment groups (n=/>8). […] Lapatinib and Sunitinib were formulated in 0.5% hydroxypropyl methyl cellulose (HPMC)-0.2% tween-80 as homogeneous suspension. All test agents were prepared twice weekly. Mice were dosed orally once daily (qd). Tumor growth inhibition rate (TGI) was calculated: TGI=[1-(Vt-Vi)/(Vc-Vi)]×100, where Vt: tumor volume of drug treated group, Vc: tumor volume of vehicle control group, Vi: initial tumor volume at staging. For biomarker studies, frozen tumors were made lysates and immunoblotted as previously described. For detecting apoptosis, tumors were excised, fixed in 4% formalin for 24 h and embedded in paraffin. Slides were processed for terminal deoxynuleotidyl transferase dUTP nick end labeling (TUNEL) using an assay kit (KeyGen Biotech, KGA7061) following vendor's instruction manual. For IHC staining, tumor slides described above were deparaffinized, rehydrated and permeablized with 1% Triton X-100. Antigens were retrieved with Tris/EDTA (pH 9.0) under microwave heating for 20 min. The slides were blocked in Tris buffered saline with 5% BSA-0.3 M glycine and reacted with anti-CPT1A (Proteintech #15184-1-AP) or anti-P-ACL S455 (Abcam #59297) and detected with peroxidase-conjugated secondary antibody (Jackson # 111-035-003). Images were acquired using Leica microscope (model DMI4000D). Staining levels were analyzed on the basis of mean optical density quantified by software image pro plus 6.0.

[5] = test system: HER2-/PIK3CAwt HCC1806 breast tumor model; assay: In vivo antitumor efficacy, oral once daily; set-up: species or system mice; conditions: HCC1806 tumors; even at the highest 40 mg/kg oral qd
Protocol: as §2, with “Slides were processed for terminal deoxynuleotidyl transferase dUTP nick end labeling (TUNEL) using an assay kit (KeyGen Biotech, KGA7061) following vendor's instruction manual. For IHC staining, tumor slides described above were deparaffinized, rehydrated and permeablized with 1% Triton X-100. Antigens were retrieved with Tris/EDTA (pH 9.0) under microwave heating for 20 min.” left out, “Images were acquired using Leica microscope (model DMI4000D).” left out

MDA-MB-231 cells = assay: Glucose-to-lipid conversion (de novo lipid synthesis); assay type: cell-based; conditions: similar treatment, 4 h saturating dose
Protocol: (§3) Cellular glucose-to-lipid conversion was measured as described. Briefly, cells were pretreated with inhibitors for 2 h, incubated for 2 h in medium containing 2 μCi/mL D-[1-14C] glucose (PerkinElmer, NEC043X001MC). Total lipids were extracted twice with 300 μL hexane:isopropanol (3:2; vol:vol). Cell debris was carefully removed by centrifugation at 14,000 rpm for 5 min using a microcentrifuge. Radioactive lipids were dried, redissolved with 100 μL of chloroform and determined by liquid scintillation counting. A duplicate assay plate without radioactive glucose label was used to count the number of cells per treatment. Glucose to total lipid conversion rate is the radioactive counts from the extracted lipid normalized by the number of cells per hour of ^14C-glucose incubation. For acetyl-CoA assay, cells grown in 96-well plates were washed and lysed in 40 μL/well using lysis buffer. Cell lysates were transferred to V-bottom plates, cleared by centrifugation. 30 μL of the cleared cell lysates were subjected to acetyl-CoA measurement using an acetyl-CoA assay kit (Sigma, MAK-039) following manufacturer's assay manual. Duplicate assay plates were used to count the number of cells per treatment for normalization in determining cellular acetyl-CoA levels.

MDA-MB-453 cells = assay: as above; assay type: cell-based; conditions: 4 h, saturating dose (5 μM MTI-31, 1 μM rapamycin)
Protocol: as §3

T5 sequence (P78368 whole entry): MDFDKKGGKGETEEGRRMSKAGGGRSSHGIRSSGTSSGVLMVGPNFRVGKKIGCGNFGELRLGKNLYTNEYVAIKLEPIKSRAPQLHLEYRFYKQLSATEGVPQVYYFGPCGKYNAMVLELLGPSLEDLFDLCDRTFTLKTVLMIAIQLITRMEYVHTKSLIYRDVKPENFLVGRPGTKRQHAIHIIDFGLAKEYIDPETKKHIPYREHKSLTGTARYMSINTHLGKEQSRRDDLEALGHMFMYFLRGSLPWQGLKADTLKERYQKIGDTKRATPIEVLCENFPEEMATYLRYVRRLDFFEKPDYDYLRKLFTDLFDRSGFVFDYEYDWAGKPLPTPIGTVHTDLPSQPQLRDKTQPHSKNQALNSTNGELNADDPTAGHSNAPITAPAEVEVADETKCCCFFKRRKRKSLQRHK
T18 sequence (Q9H093 whole entry): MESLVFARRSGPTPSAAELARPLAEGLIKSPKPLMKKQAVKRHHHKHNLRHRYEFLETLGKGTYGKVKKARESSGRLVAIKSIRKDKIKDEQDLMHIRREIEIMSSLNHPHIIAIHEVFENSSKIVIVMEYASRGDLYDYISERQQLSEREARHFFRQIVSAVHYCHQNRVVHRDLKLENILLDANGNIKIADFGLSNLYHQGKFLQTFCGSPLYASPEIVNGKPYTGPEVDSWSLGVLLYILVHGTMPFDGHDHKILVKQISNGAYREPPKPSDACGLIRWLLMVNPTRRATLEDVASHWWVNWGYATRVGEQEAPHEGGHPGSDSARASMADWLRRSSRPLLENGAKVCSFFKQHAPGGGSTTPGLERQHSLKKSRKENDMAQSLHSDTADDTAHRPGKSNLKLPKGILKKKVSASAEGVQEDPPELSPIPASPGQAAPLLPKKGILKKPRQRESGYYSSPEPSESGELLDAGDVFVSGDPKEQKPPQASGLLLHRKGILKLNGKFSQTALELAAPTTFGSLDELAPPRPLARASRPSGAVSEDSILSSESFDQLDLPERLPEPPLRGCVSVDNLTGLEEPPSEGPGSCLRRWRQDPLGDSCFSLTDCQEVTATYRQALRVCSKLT
T11 sequence (Q15831 whole entry): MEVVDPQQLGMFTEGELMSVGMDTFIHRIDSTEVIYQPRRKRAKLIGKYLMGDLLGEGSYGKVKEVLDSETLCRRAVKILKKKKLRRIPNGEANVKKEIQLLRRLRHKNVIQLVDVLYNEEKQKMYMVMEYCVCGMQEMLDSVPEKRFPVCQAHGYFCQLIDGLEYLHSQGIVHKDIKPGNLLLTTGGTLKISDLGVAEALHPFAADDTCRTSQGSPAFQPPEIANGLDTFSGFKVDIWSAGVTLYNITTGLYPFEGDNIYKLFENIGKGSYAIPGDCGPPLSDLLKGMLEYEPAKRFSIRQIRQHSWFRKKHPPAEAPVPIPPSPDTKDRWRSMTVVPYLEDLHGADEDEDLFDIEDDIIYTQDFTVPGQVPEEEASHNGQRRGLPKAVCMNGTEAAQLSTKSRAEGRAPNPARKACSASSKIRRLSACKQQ
T14 sequence (Q13177 whole entry): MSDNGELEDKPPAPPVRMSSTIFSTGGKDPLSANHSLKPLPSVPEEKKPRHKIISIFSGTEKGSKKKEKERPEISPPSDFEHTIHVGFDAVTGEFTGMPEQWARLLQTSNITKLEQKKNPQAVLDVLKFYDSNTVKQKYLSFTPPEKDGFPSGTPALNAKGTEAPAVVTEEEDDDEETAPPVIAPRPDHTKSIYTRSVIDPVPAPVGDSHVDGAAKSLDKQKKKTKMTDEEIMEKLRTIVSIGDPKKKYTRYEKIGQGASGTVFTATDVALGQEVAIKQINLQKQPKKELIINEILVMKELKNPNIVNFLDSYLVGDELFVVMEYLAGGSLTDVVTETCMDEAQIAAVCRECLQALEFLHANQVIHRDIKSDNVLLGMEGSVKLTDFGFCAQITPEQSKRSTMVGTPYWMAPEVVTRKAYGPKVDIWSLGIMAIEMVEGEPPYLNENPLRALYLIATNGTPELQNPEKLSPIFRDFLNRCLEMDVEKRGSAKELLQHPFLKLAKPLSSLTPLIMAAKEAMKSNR
T20 sequence (P04629 33-796): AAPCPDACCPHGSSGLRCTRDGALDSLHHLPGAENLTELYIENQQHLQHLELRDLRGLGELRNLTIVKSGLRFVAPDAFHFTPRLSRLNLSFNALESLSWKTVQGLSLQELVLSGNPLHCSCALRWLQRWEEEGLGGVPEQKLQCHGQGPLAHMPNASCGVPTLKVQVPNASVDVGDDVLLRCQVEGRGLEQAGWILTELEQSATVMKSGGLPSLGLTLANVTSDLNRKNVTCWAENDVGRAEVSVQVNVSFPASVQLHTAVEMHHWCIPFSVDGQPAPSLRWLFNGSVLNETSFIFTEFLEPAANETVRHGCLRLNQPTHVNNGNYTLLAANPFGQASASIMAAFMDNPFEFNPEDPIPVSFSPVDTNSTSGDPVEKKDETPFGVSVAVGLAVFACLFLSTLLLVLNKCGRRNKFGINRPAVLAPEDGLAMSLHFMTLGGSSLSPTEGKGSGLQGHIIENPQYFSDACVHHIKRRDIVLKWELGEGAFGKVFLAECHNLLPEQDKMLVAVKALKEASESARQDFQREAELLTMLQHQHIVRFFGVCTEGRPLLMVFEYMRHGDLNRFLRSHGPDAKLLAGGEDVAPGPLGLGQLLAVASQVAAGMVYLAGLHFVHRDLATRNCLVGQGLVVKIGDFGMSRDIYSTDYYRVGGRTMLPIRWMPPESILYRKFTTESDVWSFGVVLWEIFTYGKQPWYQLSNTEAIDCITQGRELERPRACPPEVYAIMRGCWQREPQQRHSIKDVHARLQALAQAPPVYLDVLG
T21 sequence (P29597 888-1187 limits assumed): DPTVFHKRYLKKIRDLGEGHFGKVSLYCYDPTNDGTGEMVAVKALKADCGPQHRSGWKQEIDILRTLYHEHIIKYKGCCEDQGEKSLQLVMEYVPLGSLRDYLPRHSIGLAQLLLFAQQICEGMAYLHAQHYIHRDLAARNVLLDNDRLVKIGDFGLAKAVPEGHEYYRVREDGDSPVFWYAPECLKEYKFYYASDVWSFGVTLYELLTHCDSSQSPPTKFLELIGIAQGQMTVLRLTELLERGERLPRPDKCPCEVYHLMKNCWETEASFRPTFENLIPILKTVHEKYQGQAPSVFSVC
T22 sequence (P35968 20-1356): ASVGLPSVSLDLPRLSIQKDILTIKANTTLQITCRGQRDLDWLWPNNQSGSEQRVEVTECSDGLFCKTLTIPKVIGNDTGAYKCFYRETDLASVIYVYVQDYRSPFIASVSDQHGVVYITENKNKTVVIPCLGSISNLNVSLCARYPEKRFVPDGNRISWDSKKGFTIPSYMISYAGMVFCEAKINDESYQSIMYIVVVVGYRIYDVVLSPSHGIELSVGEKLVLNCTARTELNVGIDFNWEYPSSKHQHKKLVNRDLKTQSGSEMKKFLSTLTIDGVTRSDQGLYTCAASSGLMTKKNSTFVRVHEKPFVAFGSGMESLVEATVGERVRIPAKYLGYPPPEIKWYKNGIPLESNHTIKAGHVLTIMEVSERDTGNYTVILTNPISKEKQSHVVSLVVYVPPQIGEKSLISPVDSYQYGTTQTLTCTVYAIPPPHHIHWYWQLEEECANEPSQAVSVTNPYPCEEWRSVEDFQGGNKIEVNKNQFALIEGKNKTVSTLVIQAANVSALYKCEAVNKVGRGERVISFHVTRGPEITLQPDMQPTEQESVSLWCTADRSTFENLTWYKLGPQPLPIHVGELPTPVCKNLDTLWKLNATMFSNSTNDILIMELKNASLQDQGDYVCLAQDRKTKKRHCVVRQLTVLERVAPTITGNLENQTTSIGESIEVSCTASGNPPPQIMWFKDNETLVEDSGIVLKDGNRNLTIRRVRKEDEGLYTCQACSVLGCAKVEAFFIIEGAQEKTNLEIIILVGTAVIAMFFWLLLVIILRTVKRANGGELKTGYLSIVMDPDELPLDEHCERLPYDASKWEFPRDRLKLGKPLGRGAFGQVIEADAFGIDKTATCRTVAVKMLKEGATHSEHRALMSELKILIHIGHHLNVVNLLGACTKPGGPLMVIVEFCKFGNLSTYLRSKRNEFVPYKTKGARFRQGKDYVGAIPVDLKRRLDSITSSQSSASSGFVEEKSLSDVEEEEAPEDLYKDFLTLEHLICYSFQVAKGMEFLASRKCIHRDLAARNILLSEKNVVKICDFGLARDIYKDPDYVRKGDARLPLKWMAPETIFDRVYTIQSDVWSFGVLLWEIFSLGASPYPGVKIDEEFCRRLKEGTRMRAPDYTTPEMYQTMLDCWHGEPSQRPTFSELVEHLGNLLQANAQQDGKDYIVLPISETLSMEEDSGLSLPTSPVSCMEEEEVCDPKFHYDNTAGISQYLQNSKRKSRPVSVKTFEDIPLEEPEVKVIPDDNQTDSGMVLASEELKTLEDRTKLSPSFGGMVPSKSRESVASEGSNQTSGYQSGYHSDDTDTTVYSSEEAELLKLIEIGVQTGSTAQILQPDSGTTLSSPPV
T16 sequence (Q9P1W9 whole entry): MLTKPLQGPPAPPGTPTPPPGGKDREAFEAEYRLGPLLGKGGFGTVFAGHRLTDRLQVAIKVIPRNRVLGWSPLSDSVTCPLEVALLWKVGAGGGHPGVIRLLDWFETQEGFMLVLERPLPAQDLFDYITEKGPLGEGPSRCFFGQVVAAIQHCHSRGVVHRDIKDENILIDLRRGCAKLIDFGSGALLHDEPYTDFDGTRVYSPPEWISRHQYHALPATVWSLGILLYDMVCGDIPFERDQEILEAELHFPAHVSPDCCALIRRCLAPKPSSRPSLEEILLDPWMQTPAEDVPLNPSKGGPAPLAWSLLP

Q: `CNC(=O)c1cccc(-c2ccc3c(N4C5CCC4COC5)nc(N4CCOC[C@@H]4C)nc3n2)c1` [MTI-31] was tested. Which “% Control” value [1] did it give?
A: 78%

Q: What about the “% Control” value [2] of the same compound?
A: 76%

Q: What about the “% Control” value (AURKA) of the same compound?
A: 97%

Q: And the “% Control” value (CDK2)?
A: 84%

Q: What about the “% Control” value (CSNK1G2) of the same compound?
A: 100%

Q: And the “% Control” value (DCAMKL1)?
A: 76%

Q: And the “% Control” value (FGFR2)?
A: 100%

Q: What about the “% Control” value (FGFR3) of the same compound?
A: 92%

Q: And the “% Control” value (GSK3B)?
A: 56%

Q: And the “% Control” value (JNK3)?
A: 96%

Q: And the “% Control” value (LKB1)?
A: 100%

Q: And the “% Control” value (MAPKAPK2)?
A: 87%

Q: And the “% Control” value (MEK1)?
A: 73%

Q: What about the “% Control” value (PAK2) of the same compound?
A: 94%

Q: What about the “% Control” value (PAK4) of the same compound?
A: 100%

Q: And the “% Control” value (PIM2)?
A: 92%

Q: What about the “% Control” value (PKAC-alpha) of the same compound?
A: 98%

Q: What about the “% Control” value (SNARK) of the same compound?
A: 89%

Q: What about the “% Control” value (SRPK3) of the same compound?
A: 90%

Q: And the “% Control” value (TRKA)?
A: 84%

Q: And the “% Control” value [3]?
A: 63%

Q: What about the “% Control” value (VEGFR2) of the same compound?
A: 98%

Q: And the “tumor growth inhibition (TGI) at MED” value ([4]; 5 mg/kg oral qd, p<0.01)?
A: > 50%

Q: And the “body weight loss at MTD” value ([4]; 40 mg/kg oral qd, without mortality)?
A: 7-15%

Q: What about the “tumor response, large size tumors” value ([4]; nude mice bearing large size MDA-MB-453 tumors, 40 mg/kg qd) of the same compound?
A: rapid and dramatic tumor regression

Q: And the “minimum efficacious dose (MED)” value ([4]; oral, qd, nude mice, MDA-MB-453 and 786-O models)?
A: 5 mg/kg

Q: What about the “maximum tolerated dose (MTD)” value ([4]; oral, qd, nude mice, without mortality) of the same compound?
A: 40 mg/kg

Q: And the antitumor efficacy [5]?
A: limited efficacy

Q: What about the “effect on de novo lipid synthesis” value (MDA-MB-231 cells) of the same compound?
A: did not significantly reduce lipid synthesis

Q: And the “suppression of de novo lipid synthesis (14C-glucose-to-lipid conversion rate)” value (MDA-MB-453 cells)?
A: 70%
